The values that follow come from ChEMBL document CHEMBL2057124, “Benzoheterocyclic amodiaquine analogues with potent antiplasmodial activity: synthesis and pharmacological evaluation” (Bioorg Med Chem Lett, 2012).

Data set [1] relates to Plasmodium falciparum. The experiment in a line: Antiplasmodial activity against chloroquine-resistant Plasmodium falciparum W2 infected in human erythrocytes after 48 hrs by Geimsa staining. In kind it is functional, organism-based. The conditions noted are these: W2, 48 h.
For data set [2], the system named is Plasmodium falciparum. The experiment in a line: Antiplasmodial activity against chloroquine-resistant Plasmodium falciparum K1 assessed as [3H]hypoxanthine incorporation after 24 hrs by scintillation counting. It counts as functional, organism-based.
The test system of another data set is L6. Kind of data set: Cytotoxicity against rat L6 cells after 72 hrs by alamar blue assay. In kind it is cell-based. As to conditions: L6, 72 h.
Data set [3] is described as follows: Selectivity ratio of IC50 for rat L6 cells to IC50 for […]. It counts as ADME, cell-based. As to conditions: read-out: Ratio IC50.
In data set [4] the test system is Plasmodium falciparum. Kind of data set: Resistance ratio of IC50 for chloroquine-resistance Plasmodium falciparum K1 to IC50 for […]. In kind it is functional.

pIC50: −log10 of the molar value.

For `CCN(CC)Cc1cc(Nc2ccnc3cc(Cl)ccc23)ccc1O`, the results for the negative logarithm of the IC50 (pIC50) in the data set on Plasmodium falciparum [1] and with Plasmodium falciparum [2] were 8.30 and 8.10, respectively.
In the case of `CC(C)(C)Nc1nc2cc(Nc3ccnc4cc(Cl)ccc34)ccc2s1`, the pIC50 (as a rule, the negative decadic logarithm of the IC50, by convention in mol/L) with Plasmodium falciparum [1] was 5.94; with Plasmodium falciparum [2] it was 6.04; with L6, 5.38. Besides, the selectivity ratio in data set [3] stood at 3.56.
For the compound `Clc1ccc2c(Nc3ccc4sc(NCCN5CCCC5)nc4c3)ccnc2c1`, the pIC50 was 7.92 with Plasmodium falciparum [1], 7.85 with Plasmodium falciparum [2] and 5.29 in the data set on L6. The selectivity ratio in data set [3] worked out at 426. Further, the “Ratio IC50” value with Plasmodium falciparum [4] is recorded as 1.2.
Take `Clc1ccc2c(Nc3ccc4sc(NCCN5CCCCC5)nc4c3)ccnc2c1`: the pIC50 was 7.89 in the data set with Plasmodium falciparum [1], 8.15 in the data set on Plasmodium falciparum [2] and 5.45 with L6. For the same compound, the selectivity ratio in data set [3] was 272.
As for `Clc1ccc2c(Nc3ccc4sc(NCCN5CCOCC5)nc4c3)ccnc2c1`, the results for the negative logarithm of the IC50 (pIC50) with Plasmodium falciparum [1], in the data set with Plasmodium falciparum [2] and in the data set on L6 were 7.40, 7.60 and 5.33, respectively. Further, in data set [3], the selectivity ratio came to 117.
On to `CCN(CC)CCNc1nc2cc(Nc3ccnc4cc(Cl)ccc34)ccc2s1`, for which, in the data set on Plasmodium falciparum [1], the pIC50 is 7.96.
For `CCNc1nc2cc(Nc3ccnc4cc(Cl)ccc34)ccc2o1`, the pIC50 with Plasmodium falciparum [1] was 6.31; in the data set on Plasmodium falciparum [2], 6.04; in the data set on L6, 4.79. The selectivity ratio in data set [3] turned out to be 33.3.
Take `Clc1ccc2c(Nc3ccc4oc(NCCN5CCCC5)nc4c3)ccnc2c1`: the pIC50 with Plasmodium falciparum [1] is 8.10; in the data set on Plasmodium falciparum [2], 7.66; in the data set on L6, 5.06. Moreover, the selectivity ratio in data set [3] was 1090. In the data set on Plasmodium falciparum [4], the “Ratio IC50” value is 2.8.
Regarding `CCNc1nc2cc(Nc3ccnc4cc(Cl)ccc34)ccc2[nH]1`, the pIC50 is 6.30 in the data set on Plasmodium falciparum [1], 6.60 with Plasmodium falciparum [2] and 5.24 in the data set on L6. Further, in data set [3], the selectivity ratio turned out to be 11.4.
As to `Clc1ccc2c(Nc3ccc4[nH]c(NCCN5CCCCC5)nc4c3)ccnc2c1`, the pIC50 in the data set on Plasmodium falciparum [1] was 5.34; in the data set on Plasmodium falciparum [2], 7.05; in the data set on L6, 5.28. Besides, the selectivity ratio in data set [3] was 1.15.
In the same order, the values of `CCN(CC)CCNc1nc2cc(Nc3ccnc4cc(Cl)ccc34)ccc2[nH]1` are 6.70, 6.08, 4.82 and 76.4.
In the case of `Clc1ccc2c(Nc3ccc(NCCN4CCCC4)nc3)ccnc2c1`, the pIC50 with Plasmodium falciparum [1] was 7.68; with Plasmodium falciparum [2], 7.04; in the data set on L6 it was 4.73. For the same compound, the selectivity ratio in data set [3] worked out at 885. In addition, the “Ratio IC50” value in the data set with Plasmodium falciparum [4] was 4.4.
For `Clc1ccc2c(Nc3ccc(NCCN4CCOCC4)nc3)ccnc2c1`, the negative logarithm of the IC50 (pIC50) in the data set with Plasmodium falciparum [1] is 7.39; in the data set with Plasmodium falciparum [2] it was 7.14; in the data set with L6 it was 4.32. The selectivity ratio in data set [3] was 1160.
